Structures can show the parent of a compound that is named as a salt.
Key:
[1] = molecular target: T1, LRRK2 recombinant protein (Homo sapiens, UniProt Q5S007); test: Radiometric protein kinase assay (33PanQinase Activity Assay), in vitro peptide-based kinase assay; format: biochemical; details: protein kinase LRRK2 7.3 nM, ATP 0.3 μM, substrate GSK3(14-27), 30° C. for 60 minutes
T1 construct: purchased Invitrogen Corporation
Method: The inhibition of LRRK2 kinase was assessed using LRRK2 recombinant protein in an in vitro peptide-based kinase assay.
A radiometric protein kinase assay (^33PanQinase® Activity Assay) is used for measuring the kinase activity. All assays are performed in 96-well FlashPlates™ from Perkin Elmer in a 50 μl reaction volume. The reaction cocktail is […] in 4 steps in the following order: • 10 μl of non-radioactive ATP solution (in H2O) • 25 μl of assay buffer/[γ-^33P]-ATP mixture • 5 μl of test sample in 10% DMSO • 10 μl of enzyme/substrate mixture
The assay for LRRK2 contains 70 mM HEPES-NaOH pH 7.5, 3 mM MgCl2, 3 mM MnCl2, 3 μM Na-orthovanadate, 1.2 mM DTT, 50 μg/ml PEG20000, ATP (0.3 μM), [γ-^33P]-ATP (approx. […] per well), protein kinase LRRK2 (7.3 nM) and substrate (GSK3(14-27), 1.0 μg/50 μl). The kinase is obtained from Invitrogen Corporation.
The reaction cocktails were incubated at 30° C. for 60 minutes. The reaction was stopped with 50 μl of 2% (v/v) H3PO4, plates were aspirated and washed two times with 200 μl 0.9% (w/v) NaCl. Incorporation of ^33Pi (counting of “cpm”) was determined with a microplate scintillation counter.
The compounds are dissolved to 10 mM in DMSO. Where needed, solutions are sonicated in a bath sonicator.

T1 sequence (Q5S007 whole entry): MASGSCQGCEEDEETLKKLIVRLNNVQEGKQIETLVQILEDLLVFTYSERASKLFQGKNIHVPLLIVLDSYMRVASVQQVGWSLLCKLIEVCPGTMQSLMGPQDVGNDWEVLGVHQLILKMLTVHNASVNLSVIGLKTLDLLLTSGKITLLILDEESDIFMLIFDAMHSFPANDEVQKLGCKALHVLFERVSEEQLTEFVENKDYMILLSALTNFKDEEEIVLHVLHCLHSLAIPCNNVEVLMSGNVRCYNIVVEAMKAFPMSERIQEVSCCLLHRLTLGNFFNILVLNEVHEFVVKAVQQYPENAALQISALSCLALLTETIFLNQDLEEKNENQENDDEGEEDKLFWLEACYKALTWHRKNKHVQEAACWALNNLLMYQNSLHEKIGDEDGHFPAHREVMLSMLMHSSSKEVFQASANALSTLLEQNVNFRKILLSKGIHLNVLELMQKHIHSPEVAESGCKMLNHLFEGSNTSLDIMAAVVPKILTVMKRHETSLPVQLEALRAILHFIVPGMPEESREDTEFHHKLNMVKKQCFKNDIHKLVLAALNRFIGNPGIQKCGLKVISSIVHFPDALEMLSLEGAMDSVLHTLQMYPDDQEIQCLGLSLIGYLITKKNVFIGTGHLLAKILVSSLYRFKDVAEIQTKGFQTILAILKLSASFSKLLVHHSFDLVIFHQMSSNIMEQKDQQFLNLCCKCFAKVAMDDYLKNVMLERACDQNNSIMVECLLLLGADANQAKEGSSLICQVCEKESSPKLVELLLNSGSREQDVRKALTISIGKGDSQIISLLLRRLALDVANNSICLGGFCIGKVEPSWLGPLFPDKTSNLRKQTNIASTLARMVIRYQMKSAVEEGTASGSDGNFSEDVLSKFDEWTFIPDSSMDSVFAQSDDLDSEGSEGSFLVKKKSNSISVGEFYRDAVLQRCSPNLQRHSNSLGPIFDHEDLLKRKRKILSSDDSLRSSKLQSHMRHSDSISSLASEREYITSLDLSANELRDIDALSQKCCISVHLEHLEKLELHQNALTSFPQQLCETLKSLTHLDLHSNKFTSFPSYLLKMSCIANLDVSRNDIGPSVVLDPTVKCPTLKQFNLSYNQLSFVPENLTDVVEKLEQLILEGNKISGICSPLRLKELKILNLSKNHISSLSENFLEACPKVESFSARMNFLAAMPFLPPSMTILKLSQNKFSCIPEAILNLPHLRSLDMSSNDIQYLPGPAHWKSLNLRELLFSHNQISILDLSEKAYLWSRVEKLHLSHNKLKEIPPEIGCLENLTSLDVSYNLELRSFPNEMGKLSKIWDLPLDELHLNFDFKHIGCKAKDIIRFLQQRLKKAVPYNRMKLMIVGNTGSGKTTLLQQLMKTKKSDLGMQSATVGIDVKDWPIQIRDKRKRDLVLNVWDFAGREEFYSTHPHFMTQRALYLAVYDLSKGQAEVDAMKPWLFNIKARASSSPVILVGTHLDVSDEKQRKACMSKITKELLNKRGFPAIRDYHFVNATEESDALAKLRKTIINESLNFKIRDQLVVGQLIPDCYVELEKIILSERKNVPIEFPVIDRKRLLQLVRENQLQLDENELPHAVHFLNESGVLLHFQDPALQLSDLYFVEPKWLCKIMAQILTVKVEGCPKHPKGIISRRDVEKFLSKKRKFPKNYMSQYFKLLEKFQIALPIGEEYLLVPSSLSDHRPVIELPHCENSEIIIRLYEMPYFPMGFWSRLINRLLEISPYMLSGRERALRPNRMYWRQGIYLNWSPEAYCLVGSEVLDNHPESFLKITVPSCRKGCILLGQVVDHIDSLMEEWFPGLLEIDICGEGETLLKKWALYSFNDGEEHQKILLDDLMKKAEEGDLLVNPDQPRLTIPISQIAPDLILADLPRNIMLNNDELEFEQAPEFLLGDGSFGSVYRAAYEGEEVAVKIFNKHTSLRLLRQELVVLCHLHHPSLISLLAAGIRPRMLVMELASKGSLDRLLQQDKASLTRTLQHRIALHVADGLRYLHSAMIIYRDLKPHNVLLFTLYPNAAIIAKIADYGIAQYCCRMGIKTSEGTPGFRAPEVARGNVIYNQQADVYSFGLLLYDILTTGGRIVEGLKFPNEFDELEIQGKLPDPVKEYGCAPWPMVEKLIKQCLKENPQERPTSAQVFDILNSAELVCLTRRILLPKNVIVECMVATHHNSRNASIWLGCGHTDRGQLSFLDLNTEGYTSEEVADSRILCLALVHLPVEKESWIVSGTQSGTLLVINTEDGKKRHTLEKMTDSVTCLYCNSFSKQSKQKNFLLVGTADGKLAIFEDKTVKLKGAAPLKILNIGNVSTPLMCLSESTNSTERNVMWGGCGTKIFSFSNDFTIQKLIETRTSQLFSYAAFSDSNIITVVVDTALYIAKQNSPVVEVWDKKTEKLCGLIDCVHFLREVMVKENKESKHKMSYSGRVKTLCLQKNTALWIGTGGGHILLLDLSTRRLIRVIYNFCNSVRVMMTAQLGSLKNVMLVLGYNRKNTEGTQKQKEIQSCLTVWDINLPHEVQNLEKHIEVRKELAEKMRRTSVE

Row | SMILES | melting point [°C] | IC50 [1] [µM]
1 | Fc1ccc2cc1-c1cnn3ccc(nc13)NCCCCNCCN2 [Compound G46] | 270.4 | < 0.1
2 | CC1CNCCCNc2ccn3ncc(c3n2)-c2cccc(c2)O1 (stereo not drawn) [Compound G23] | > 300 | < 0.1
3 | c1cc2cc(c1)-c1cnc3ccc(nn13)NCCNCCCO2 [Compound G32] | > 300 | < 0.1
4 | Clc1ccc2cc1-c1cnn3ccc(nc13)NCCNCCCO2 [Compound G30] | > 300 | 0.1 to 1
5 | c1cc2cc(c1)-c1cnn3ccc(nc13)NCCNCCN2 [Compound D1] | > 300 | < 0.1
6 | Fc1ccc2cc1-c1cnc3ccc(nn13)NCCCNCCN2 [Compound G43] | > 300 | < 0.1
7 | c1cc2cc(c1)-c1cnn3ccc(nc13)OCCCNCCN2 (as salt: HCl) [Compound G3] | 280 | –
8 | CN1CCNCCCOc2ccc(F)c(c2)-c2cnc3ccc1nn23 [Compound G34] | > 300 | < 0.1
9 | CN1CCNCCCNc2ccc(F)c(c2)-c2cnc3ccc1nn23 [Compound G41] | 263.8 | < 0.1
10 | c1cc2cc(c1)-c1cnn3ccc(nc13)NCCCNCCCN2 (as salt: HCl) [Compound G1] | 280 | –
11 | c1cc2cc(c1)-c1cnn3ccc(nc13)NCCCNCCCN2 [Compound G1] | – | < 0.1
12 | Fc1ccc2cc1-c1cnn3ccc(nc13)NCCCOCCN2 [Compound G49] | – | < 0.1
13 | N#CCN1CCCNc2ccc(F)c(c2)-c2cnn3ccc(nc23)NCC1 [Compound G47] | 262.6 | < 0.1
14 | Fc1ccc2cc1-c1cnn3ccc(nc13)NCCNCCO2 (as salt: hydrochloride) [Compound C1] | > 300 | –
15 | CN1CCNCCCOc2cccc(c2)-c2cnn3ccc1nc23 [Compound G22] | 286.4 | < 0.1
16 | Fc1ccc2cc1-c1cnn3ccc(nc13)OCCCNCCN2 [Compound G19] | 279.1 | < 0.1
17 | CN1CCCNc2ccn3ncc(c3n2)-c2cc(ccc2F)OCC1 (as salt: HCl) [Compound G18] | > 300 | –
18 | c1cc2cc(c1)-c1cnn3ccc(nc13)NCCCCNCCCO2 [Compound D5] | 146.9 | < 0.1
19 | c1cc2cc(c1)-c1cnn3ccc(nc13)OCCCNCCN2 [Compound G3] | – | < 0.1
20 | CN1CCNCCCOc2ccc(F)c(c2)-c2cnn3ccc1nc23 [Compound G26] | > 300 | < 0.1
21 | CN1CCCNCCOc2ccc(F)c(c2)-c2cnn3ccc1nc23 (as salt: HCl) [Compound G16] | > 300 | –
22 | c1cc2cc(c1)-c1cnc3ccc(nn13)NCCCNCCO2 [Compound G4] | > 300 | < 0.1
23 | Fc1ccc2cc1-c1cnn3ccc(nc13)NCCNCCO2 [Compound C1] | – | < 0.1
24 | Fc1ccc2cc1-c1cnn3ccc(nc13)NCCNCCCN2 [Compound G21] | > 300 | < 0.1
25 | Fc1ccc2cc1-c1cnn3ccc(nc13)NCCCCNCCO2 [Compound G40] | > 300 | < 0.1
26 | Fc1ccc2cc1-c1cnn3ccc(nc13)NCCCNCCO2 [Compound G6] | 197.6 | < 0.1
27 | CN1CCCNc2ccn3ncc(c3n2)-c2cc(ccc2F)OCC1 [Compound G18] | – | < 0.1
28 | CN1CCCNCCOc2ccc(F)c(c2)-c2cnn3ccc1nc23 [Compound G16] | – | < 0.1
